# According to ChEMBL document CHEMBL5465560, “Selectivity Literature for EUbOPEN Chemogenomic Library” (2024):
# What was measured:
# [1] = target: T1, Discoidin domain-containing receptor 2 (Homo sapiens) (UniProt Q16832); settings: at 10 µM
# T1 sequence (whole entry): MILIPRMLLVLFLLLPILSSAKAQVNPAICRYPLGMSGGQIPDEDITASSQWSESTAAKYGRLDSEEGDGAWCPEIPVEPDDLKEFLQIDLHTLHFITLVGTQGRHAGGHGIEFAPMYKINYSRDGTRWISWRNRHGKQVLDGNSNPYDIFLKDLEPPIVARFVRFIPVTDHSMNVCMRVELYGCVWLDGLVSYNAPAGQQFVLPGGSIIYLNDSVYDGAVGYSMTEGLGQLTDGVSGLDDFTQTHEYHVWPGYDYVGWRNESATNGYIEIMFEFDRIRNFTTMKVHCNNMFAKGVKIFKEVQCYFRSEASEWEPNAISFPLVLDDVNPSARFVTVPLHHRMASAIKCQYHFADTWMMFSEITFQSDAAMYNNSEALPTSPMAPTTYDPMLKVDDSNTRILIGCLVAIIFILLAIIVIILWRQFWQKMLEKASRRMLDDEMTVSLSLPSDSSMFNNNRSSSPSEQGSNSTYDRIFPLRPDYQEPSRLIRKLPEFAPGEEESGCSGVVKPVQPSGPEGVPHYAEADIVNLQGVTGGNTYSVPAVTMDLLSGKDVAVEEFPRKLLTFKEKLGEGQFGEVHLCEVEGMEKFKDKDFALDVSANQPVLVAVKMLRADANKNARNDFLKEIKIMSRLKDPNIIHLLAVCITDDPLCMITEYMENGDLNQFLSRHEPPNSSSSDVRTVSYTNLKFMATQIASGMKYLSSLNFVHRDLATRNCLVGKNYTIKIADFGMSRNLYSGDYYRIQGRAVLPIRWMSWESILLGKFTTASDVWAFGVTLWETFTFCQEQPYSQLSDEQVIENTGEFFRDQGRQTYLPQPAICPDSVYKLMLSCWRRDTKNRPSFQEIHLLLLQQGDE
# [2] = target: Calcium/calmodulin-dependent protein kinase kinase 2 (Homo sapiens) (UniProt Q96RR4); settings: at 10 µM
# [3] = target: T2, Homeodomain-interacting protein kinase 4 (Homo sapiens) (UniProt Q8NE63); assay: Selectivity interaction (KinomeScan (DiscoverX)) EUB0000045b HIPK4
# T2 sequence (whole entry): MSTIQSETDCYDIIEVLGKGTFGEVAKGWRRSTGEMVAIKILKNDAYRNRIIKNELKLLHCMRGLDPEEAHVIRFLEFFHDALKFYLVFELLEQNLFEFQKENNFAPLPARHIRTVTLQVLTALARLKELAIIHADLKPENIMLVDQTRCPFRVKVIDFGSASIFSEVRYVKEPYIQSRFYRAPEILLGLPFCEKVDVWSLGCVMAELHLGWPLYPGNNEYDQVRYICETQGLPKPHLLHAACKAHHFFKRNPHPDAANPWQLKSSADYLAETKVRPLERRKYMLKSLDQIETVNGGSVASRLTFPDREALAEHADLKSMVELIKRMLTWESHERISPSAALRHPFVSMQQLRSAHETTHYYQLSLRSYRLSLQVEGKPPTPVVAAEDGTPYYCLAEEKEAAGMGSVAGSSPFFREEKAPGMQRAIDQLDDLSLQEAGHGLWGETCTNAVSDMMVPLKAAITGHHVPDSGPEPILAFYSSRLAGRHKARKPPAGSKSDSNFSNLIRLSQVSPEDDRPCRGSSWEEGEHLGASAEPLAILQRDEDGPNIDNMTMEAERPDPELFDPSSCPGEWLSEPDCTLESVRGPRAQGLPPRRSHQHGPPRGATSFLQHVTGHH
# [4] = target: T3, Serine/threonine-protein kinase Nek2 (Homo sapiens) (UniProt P51955); assay: Selectivity interaction (KinomeScan (DiscoverX)) EUB0000618a NEK2; settings: at 10 µM
# T3 sequence (whole entry): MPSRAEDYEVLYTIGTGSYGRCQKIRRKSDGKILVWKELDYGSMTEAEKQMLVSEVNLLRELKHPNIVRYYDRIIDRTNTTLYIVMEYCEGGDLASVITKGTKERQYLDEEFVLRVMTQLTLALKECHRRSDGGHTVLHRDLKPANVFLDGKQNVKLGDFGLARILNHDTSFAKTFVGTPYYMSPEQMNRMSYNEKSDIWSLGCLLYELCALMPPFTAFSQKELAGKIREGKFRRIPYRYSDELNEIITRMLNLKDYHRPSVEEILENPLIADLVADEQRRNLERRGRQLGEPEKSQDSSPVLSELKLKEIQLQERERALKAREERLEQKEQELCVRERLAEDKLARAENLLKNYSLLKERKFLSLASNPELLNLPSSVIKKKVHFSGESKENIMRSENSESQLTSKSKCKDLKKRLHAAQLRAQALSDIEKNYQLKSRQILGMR
# Sequence of Calcium/calmodulin-dependent protein kinase kinase 2 (Homo sapiens) (Q96RR4 2-588 limits assumed): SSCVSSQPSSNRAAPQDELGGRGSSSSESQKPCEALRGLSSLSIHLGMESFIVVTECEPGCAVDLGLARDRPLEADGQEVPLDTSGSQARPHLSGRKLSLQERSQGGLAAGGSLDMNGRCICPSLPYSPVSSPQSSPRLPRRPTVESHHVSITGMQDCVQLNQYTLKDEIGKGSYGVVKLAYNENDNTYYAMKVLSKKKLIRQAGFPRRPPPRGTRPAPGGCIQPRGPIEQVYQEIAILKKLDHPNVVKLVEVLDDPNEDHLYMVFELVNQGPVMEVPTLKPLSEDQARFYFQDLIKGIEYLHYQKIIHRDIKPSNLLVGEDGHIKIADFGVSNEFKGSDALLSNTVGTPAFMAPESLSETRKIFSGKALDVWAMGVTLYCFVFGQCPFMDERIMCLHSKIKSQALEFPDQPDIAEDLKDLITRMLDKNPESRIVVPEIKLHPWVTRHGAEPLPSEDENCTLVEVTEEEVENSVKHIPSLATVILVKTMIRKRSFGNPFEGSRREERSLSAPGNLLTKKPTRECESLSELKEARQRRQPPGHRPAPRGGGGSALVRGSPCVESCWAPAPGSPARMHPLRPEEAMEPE
smiles,measurement,setting,value
CCN(CC)CCCCNc1ncc2cc(-c3cc(OC)cc(OC)c3)c(NC(=O)NC(C)(C)C)nc2n1,% of control,[1],100%
Cc1cc([C@@H](C)Nc2ccccc2C(=O)O)c2nc(N3CCOCC3)cc(=O)n2c1 [AZD-6482],% of control,[2],100%
C=CC(=O)Nc1cc(-n2c(=O)ccc3cnc4ccc(-c5ccc(NS(C)(=O)=O)cc5)cc4c32)ccc1C,% of control,[3]; at 1 µM,100%
same,% of control,[3]; at 10 µM,71%
O[C@H]1CC[C@H](Nc2ncc3nc(Nc4c(F)cc(F)cc4F)n([C@H]4CCOC4)c3n2)CC1,% of control,[4],100%
